# In ChEMBL document CHEMBL4831527, “Structure-Based Design and Discovery of Pyridyl-Bearing Fused Bicyclic HIV-1 Inhibitors: Synthesis, Biological Characterization, and Molecular Modeling Studies” (J Med Chem, 2021):
# pEC50, pIC50: −log10 of the molar value. The source made the active and inactive calls. The rule behind the calls is not given here.
# Experiments:
# [1] = test system: Human immunodeficiency virus 1; test: Antiviral activity against HIV1 RES056 infected in human MT4 cells assessed as protection against virus-induced cytopathic effect incubated for 5 days by MTT assay; format: functional, organism-based; conditions: Human immunodeficiency virus 1, RES056, MT4, 120 h
# [2] = Selectivity index, ratio of CC50 for mock-infected human MT4 cells to EC50 for HIV1 3B infected in human MT4 cells; format: toxicity, cell-based; conditions: MT4 cells (mock-infected and HIV1 3B infected), read-out: Ratio CC50/EC50
# [3] = Cytotoxicity against mock-infected human MT4 cells assessed as reduction in cell viability measured after 5 days by MTT assay; format: cell-based; conditions: time 5 day
# [4] = test system: Human immunodeficiency virus 1; test: Antiviral activity against HIV1 3B infected in human MT4 cells assessed as protection against virus-induced cytopathic effect incubated for 5 days by MTT assay; format: functional, organism-based; conditions: Human immunodeficiency virus 1, 3B, MT4, 120 h
# [5] = Selectivity index, ratio of CC50 for mock-infected human MT4 cells to EC50 for HIV1 RES056 infected in human MT4 cells; format: toxicity, cell-based; conditions: MT4 cells (mock-infected and HIV1 RES056 infected), read-out: Ratio CC50/EC50
# [6] = test system: Human immunodeficiency virus 1; test: Antiviral activity against HIV1 harboring reverse transcriptase K103N mutant infected in human MT4 cells assessed as protection against virus-induced cytopathic effect incubated for 5 days by MTT assay; format: functional, organism-based; conditions: Human immunodeficiency virus 1, MT4, 120 h
# [7] = test system: Human immunodeficiency virus 1; test: Antiviral activity against HIV1 harboring reverse transcriptase Y188L mutant infected in human MT4 cells assessed as protection against virus-induced cytopathic effect incubated for 5 days by MTT assay; format: functional, organism-based; conditions: Human immunodeficiency virus 1, MT4, 120 h
# [8] = test system: Human immunodeficiency virus 2; test: Antiviral activity against HIV2 ROD infected in human MT4 cells assessed as protection against virus-induced cytopathogenicity after 5 days by MTT assay; format: functional, organism-based; conditions: time 5.0 day
# [9] = test system: Human immunodeficiency virus 1; test: Antiviral activity against HIV1 harboring reverse transcriptase Y181C mutant infected in human MT4 cells assessed as protection against virus-induced cytopathic effect incubated for 5 days by MTT assay; format: functional, organism-based; conditions: Human immunodeficiency virus 1, MT4, 120 h
# [10] = target: Human immunodeficiency virus type 1 reverse transcriptase (Human immunodeficiency virus 1, UniProt Q72547); test: Inhibition of wild type HIV1 p66/p51 reverse transcriptase using poly(rA) as template, oligo(dT)16 as primer and RNA/DNA as substrate measured after 40 mins by PICOGreen-dye based spectrofluorimetry analysis
# [11] = test system: Human immunodeficiency virus 1; test: Antiviral activity against HIV1 harboring reverse transcriptase E138K mutant infected in human MT4 cells assessed as protection against virus-induced cytopathic effect incubated for 5 days by MTT assay; format: functional, organism-based; conditions: Human immunodeficiency virus 1, MT4, 120 h
# [12] = test system: Human immunodeficiency virus 1; test: Antiviral activity against HIV1 harboring reverse transcriptase F227L/V106A double mutant infected in human MT4 cells assessed as protection against virus-induced cytopathic effect incubated for 5 days by MTT assay; format: functional, organism-based; conditions: Human immunodeficiency virus 1, MT4, 120 h
# [13] = test system: Human immunodeficiency virus 1; test: Antiviral activity against HIV1 harboring reverse transcriptase L100I mutant infected in human MT4 cells assessed as protection against virus-induced cytopathic effect incubated for 5 days by MTT assay; format: functional, organism-based; conditions: Human immunodeficiency virus 1, MT4, 120 h
# [14] = in vitro; conditions: human, liver microsomes
# [15] = Half life in human liver microsomes at 1 uM in presence of NADPH by LC-MS/MS analysis; format: ADME, Microsome
# [16] = test system: Human immunodeficiency virus 1; test: Potency index, ratio of EFV EC50 to test compound EC50 for antiviral activity against HIV1 RES056 infected in human MT4 cells; format: functional
Compound,pEC50 [1],selectivity ratio [2],CC50 at 120 h [3] [nM],pEC50 [4],selectivity ratio [5],pEC50 [6],pEC50 [7],Activity [8],pEC50 [9],pIC50 [10],pEC50 [11],pEC50 [12],pEC50 [13],"CLint scaled at 1 h, 1 µM [14] [mL/min/kg]",half-life at 1 µM [15] [min],Ratio EC50 [16]
Cn1c(Cn2ccc(C(F)(F)F)c(Oc3cc(Cl)cc(C#N)c3)c2=O)n[nH]c1=O [DORAVIRINE],7.82,> 21900,> 294000,7.89,> 20100,,,,,,,,,,,
Cc1cc(C=O)cc(C)c1Oc1nc(Nc2ccc(C#N)cc2)nc2c1CCCC2,5.92,169,5900,7.45,5,7.20,6.18,inactive,6.13,7.26,6.84,5.65,6.31,,,
Cc1cc(C#N)cc(C)c1Oc1nc(Nc2ccc(S(C)(=O)=O)cc2)nc2c1CCCC2,< 3.55,> 4920,> 279000,7.25,,,,inactive,,7.16,,,,,,
Cc1cc(C#N)cc(C)c1Oc1nc(Nc2ccc(C#N)cc2)nc(N)c1Br [ETRAVIRINE],6.33,,> 4600,8.32,,8.41,7.57,,6.67,,7.82,7.59,8.13,,,
Cc1cc(C#N)cc(C)c1Oc1nc(Nc2ccc(C#N)cc2)nc2c1CCCC2,,298,,7.97,,8.15,7.61,inactive,7.28,7.28,7.72,7.23,7.89,,,
Cc1cc(C=O)cc(C)c1Oc1nc(Nc2ccc(C#N)cn2)nc2c1CCCC2,< 4.45,1250,293000,6.63,58,,,inactive,,7.24,,,,,,
Cc1cc(C)c(Oc2nc(Nc3ccc(C#N)cc3)nc3c2CCCC3)c(C)c1,6.09,177,6800,7.41,8,7.24,6.72,inactive,6.63,6.62,6.77,6.28,7.01,,,
O=C(O)Cc1ccccc1Nc1c(Cl)cccc1Cl [DICLOFENAC],,,,,,,,,,,,,,310,,
Cc1cc(/C=C/C#N)cc(C)c1Nc1ccnc(Nc2ccc(C#N)cc2)n1 [RILPIVIRINE],,,,,,,,,,,,,,97.6,12.8,
O=C1Nc2ccc(Cl)cc2[C@@](C#CC2CC2)(C(F)(F)F)O1 [EFAVIRENZ],6.84,> 1390,> 6300,8.35,> 44,,6.61,,,,8.22,6.56,7.29,,,
Cc1cc(C#N)cc(C)c1Oc1nc(Nc2ccc(C#N)nc2)nc2c1CCCC2,< 4.90,228,244000,5.97,< 19,,,inactive,,7.30,,,,,,
Cc1cc(/C=C/C#N)cc(C)c1Oc1nc(Nc2ccc(C#N)cc2)nn2cccc12,7.21,395,5000,7.90,81,8.32,< 4.38,inactive,7.71,7.37,< 4.38,< 4.38,8.11,28.8,43.3,2.4
Cc1cc(C#N)cc(C)c1Oc1nc(Nc2ccc(C#N)cn2)nc2c1ccn2COCC[Si](C)(C)C,< 4.03,< 1,93900,< 4.03,< 1,,,inactive,,4.51,,,,,,
Cc1cc(C=O)cc(C)c1Oc1nc(Nc2ccc(C#N)nc2)nc2c1CCCC2,5.04,590,20900,7.45,2,,,inactive,,7.37,,,,,,
Cc1cc(C#N)cc(C)c1Oc1nc(Nc2ccc(C#N)cc2)nc2c1ccn2COCC[Si](C)(C)C,< 5.53,4,3000,6.09,< 1,,,inactive,,6.77,,,,,,
Cc1cc(C#N)cc(C)c1Oc1nc(Nc2ccc(C#N)nc2)nc2c1ccn2CO,< 3.86,≥ 2950,≥ 138000,7.33,,,,inactive,,7.33,,,,,,
Cc1cc(/C=C/C(N)=O)cc(C)c1Oc1nc(Nc2ccc(C#N)cc2)nn2cccc12,5.23,1590,57600,7.44,10,,,inactive,,7.28,,,,,,
C[C@]12CC[C@H]3[C@@H](CCC4=CC(=O)CC[C@@]43C)[C@@H]1CC[C@@H]2O [TESTOSTERONE],,,,,,,,,,,,,,126,,
Cc1cc(C#N)cc(C)c1Oc1nc(Nc2ccc(C#N)nc2)nc2c1ccn2COCC[Si](C)(C)C,< 3.93,463,117000,6.60,< 1,,,inactive,,5.13,,,,,,
Cc1cc(C#N)cc(C)c1Oc1nc(Nc2ccc(OC(F)(F)F)cc2)nc2c1CCCC2,< 3.56,> 3410,> 275000,7.09,,,,inactive,,4.21,,,,,,
Cc1cc(C#N)cc(C)c1Oc1nc(Nc2ccc(C#N)cc2)nc2c1ccn2CO,6.89,137,830,8.21,6,8.43,< 6.15,inactive,7.51,7.40,< 6.15,< 6.15,7.70,,,
Cc1cc(/C=C/C#N)cc(C)c1Oc1nc(Nc2ccc(CC#N)cc2)nc2c1CCCC2,6.36,2730,48300,7.75,112,7.89,< 4.59,inactive,6.85,7.31,< 4.59,< 4.59,7.31,,,
Cc1cc(C#N)cc(C)c1Oc1nc(Nc2ccc(C#N)nc2)nn2cccc12,5.91,9830,69100,8.15,57,7.92,< 4.16,inactive,6.77,7.85,< 4.16,< 4.16,6.69,,,
Cc1cc(/C=C/C#N)cc(C)c1Oc1nc(Nc2ccc(C#N)nc2)nc2c1CCCC2,7.23,1160,8800,8.12,150,8.11,< 5.05,inactive,7.46,6.83,< 5.05,< 5.05,7.89,47,26.5,2.4
Cc1cc(/C=C/C#N)cc(C)c1Oc1nc(Nc2ccc(C#N)cc2)nc2c1CCCC2,7.17,513,7200,7.85,105,7.77,7.11,inactive,7.39,6.92,7.21,7.02,7.74,45.5,27.4,2.1
Cc1cc(C#N)cc(C)c1Oc1nc(Nc2ccc(CC#N)cc2)nc2c1CCCC2,5.99,385,4500,7.93,4,8.00,< 5.35,inactive,6.55,7.28,< 5.35,< 5.35,7.16,,,
